Broadly, the pIC50 is the IC50 on a negative log10 scale, so that one unit is a factor of ten.

For this experiment, the target named is T1, sortase A (SrtA) (Streptococcus mutans, UniProt Q8CM62).
T1 construct: His-tagged recombinant SrtA from a 741 bp DNA fragment (pET28SmsrtA), S. mutans ATCC 25175
Kind of experiment: FRET assay with purified SrtA and fluorescent peptide Abz-LPATG-Dap(Dnp)-NH2; supported by mutants with reduced inhibition. The class given is biochemical.

pIC50: −log10 of the molar value.

T1 sequence (Q8CM62 entry or part of it): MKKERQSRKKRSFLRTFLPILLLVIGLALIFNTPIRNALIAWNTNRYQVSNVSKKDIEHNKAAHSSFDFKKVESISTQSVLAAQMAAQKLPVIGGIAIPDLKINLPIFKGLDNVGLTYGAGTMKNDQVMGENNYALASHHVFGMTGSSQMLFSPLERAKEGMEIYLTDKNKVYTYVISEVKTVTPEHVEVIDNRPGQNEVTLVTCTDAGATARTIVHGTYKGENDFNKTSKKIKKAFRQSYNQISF

The molecule `C[C@@H]1O[C@@H](O[C@H]2C(=O)c3c(O)cc(O)cc3O[C@@H]2c2ccc(O)c(O)c2)[C@H](O)[C@H](O)[C@H]1O` [astilbin] gave a pIC50 of 4.78.

Values taken from paper PMC6384703, “Astilbin Inhibits the Activity of Sortase A from Streptococcus mutans” (Molecules, 2019).
